Data published in patent US11802127B2, “3,4-dihydro-2,7-naphthyridine-1,6(2H,7H)-diones as MEK inhibitors” (Pfizer Inc., priority 2021, dated 2023).
Structures can show the parent of a compound that is named as a salt.

Each compound was assayed on ERK1/2(Thr202/Tyr204) phosphorylation (MEK-dependent) in A375 cells (assay: Cellular Phospho-p44/42 MAPK (Erk1/2) (Thr202/Tyr204) Assay). Details: Homo sapiens, A-375, 1-hour incubation, pERK1/2 (Thr202/Tyr204) In-Cell Western normalized to GAPDH.
Format: cell-based
Description: Inhibition of ERK1/2(Thr202/Tyr204) phosphorylation was determined by the following cellular assay, which comprises incubating cells with a compound for 1 hour and quantifying pERK signal by In-Cell Western on fixed cells and normalizing to GAPDH signal. A375 cells were obtained from the ATCC and grown in DMEM supplemented with 10% fetal bovine serum, penicillin/streptomycin, Glutamax®, non-essential amino acids, and sodium pyruvate. Cells were plated in 96-well plates at 30,000 cells/well and allowed to attach overnight at 37° C./5% CO2. Cells were treated with compounds prepared as a 10-point, 1:3 dilution series (range: 20 μM-0.05 nM; maximum concentration varied from 20 μM-1 μM), with a final DMSO concentration of 0.5%. Control wells contained either 0.5% DMSO alone (no inhibition control) or 1 μM of a potent control compound (complete inhibition control). After a 1-hour incubation, cells were fixed in 3.7% formaldehyde in dPBS (Dulbecco's phosphate-buffered saline) at room temperature for 20 minutes. Cells were then washed with dPBS and permeabilized in 100% MeOH at room temperature for 10 minutes. Following permeabilization, cells were washed in dPBS and incubated in LI-COR Blocking Buffer (LI-COR Biosciences, Cat #927-40000) for 1 hour or longer. Plates were then incubated with an antibody specific for the MEK-dependent ERK1/2 phosphorylation sites, threonine 202 and tyrosine 204 (Cell Signaling Technologies; Cat #9101), downstream of MEK in the MAP kinase signal transduction pathway, as well as GAPDH (Millipore; Cat #MAB374). pErk1/2 (Thr202/Tyr204) antibody was diluted in LI-COR blocking buffer containing 0.05% Tween-20 at 1:250; GAPDH was diluted at 1:2,500. The plates were incubated overnight at 4° C. After washing with PBS/0.05% Tween-20, the cells were incubated with fluorescently-labeled secondary antibodies (Anti-rabbit-Alexa Flour680, Invitrogen Cat #A21109; Anti-mouse-IRDye800CW, LI-COR Biosciences Cat #926-32210, both at 1:1000 dilution) for 1 hour. Cells were then washed, as above, and analyzed for fluorescence at both 680 and 800 nm wavelengths using the Odyssey CLx Infrared Imaging System (LI-COR Biosciences). Phosphorylated Erk1/2 (Thr202/Tyr204) signal was normalized to GAPDH signal for each well.

Structure (SMILES)	IC50
Cn1c(Nc2ccc(Br)cc2F)c2c(cc1=O)CCN(OCC1CC1)C2=O [Example 2, 8-((4-bromo-2-fluorophenyl)amino)-2-(cyclopropylmethoxy)-7-methyl-3,4-dihydro-2,7-naphthyridine-1,6(2H,7H)-dione]	1030 nM
Cn1c(Nc2ccc(Br)c(F)c2F)c2c(cc1=O)CCN(OCCO)C2=O [Example 11, 8-((4-bromo-2,3-difluorophenyl)amino)-2-(2-hydroxyethoxy)-7-methyl-3,4-dihydro-2,7-naphthyridine-1,6(2H,7H)-dione]	199 nM
Cn1c(Nc2ccc(Br)c(Cl)c2F)c2c(cc1=O)CCN(OCCO)C2=O [Example 12, 8-((4-bromo-3-chloro-2-fluorophenyl)amino)-2-(2-hydroxyethoxy)-7-methyl-3,4-dihydro-2,7-naphthyridine-1,6(2H,7H)-dione]	1060 nM
Cn1c(Nc2ccc(C(F)(F)F)cc2F)c2c(cc1=O)CCN(OCCO)C2=O [Example 13, 8-((2-fluoro-4-(trifluoromethyl)phenyl)amino)-2-(2-hydroxyethoxy)-7-methyl-3,4-dihydro-2,7-naphthyridine-1,6(2H,7H)-dione]	178 nM
COc1ccc(Nc2c3c(cc(=O)n2C)CCN(OCCO)C3=O)c(F)c1 [Example 16, 8-((2-fluoro-4-methoxyphenyl)amino)-2-(2-hydroxyethoxy)-7-methyl-3,4-dihydro-2,7-naphthyridine-1,6(2H,7H)-dione]	274 nM
Cn1c(Nc2ccc(SC(F)(F)F)cc2F)c2c(cc1=O)CCN(OCCO)C2=O [Example 17, 8-((2-fluoro-4-((trifluoromethyl)thio)phenyl)amino)-2-(2-hydroxyethoxy)-7-methyl-3,4-dihydro-2,7-naphthyridine-1,6(2H,7H)-dione]	256 nM
CC(=O)c1ccc(Nc2c3c(cc(=O)n2C)CCN(OCCO)C3=O)c(F)c1 [Example 20, 8-((4-acetyl-2-fluorophenyl)amino)-2-(2-hydroxyethoxy)-7-methyl-3,4-dihydro-2,7-naphthyridine-1,6(2H,7H)-dione]	632 nM
Cn1c(Nc2ccc(OC(F)(F)F)cc2F)c2c(cc1=O)CCN(OCCO)C2=O [Example 24, 8-((2-fluoro-4-(trifluoromethoxy)phenyl)amino)-2-(2-hydroxyethoxy)-7-methyl-3,4-dihydro-2,7-naphthyridine-1,6(2H,7H)-dione]	466 nM
Cn1c(Nc2ccc(I)cc2F)c2c(cc1=O)CCN(OC(C)(C)C)C2=O [Example 30, 2-(tert-butoxy)-8-((2-fluoro-4-iodophenyl)amino)-7-methyl-3,4-dihydro-2,7-naphthyridine-1,6(2H,7H)-dione]	421 nM
C[C@@H](O)CON1CCc2cc(=O)n(C)c(Nc3ccc(Br)cc3F)c2C1=O [Example 34, (R)-8-((4-bromo-2-fluorophenyl)amino)-2-(2-hydroxypropoxy)-7-methyl-3,4-dihydro-2,7-naphthyridine-1,6(2H,7H)-dione]	207 nM
Cc1c2c(c(Nc3ccc(Br)cc3F)n(C)c1=O)C(=O)N(OC[C@@H](C)O)CC2 [Example 35, (R)-8-((4-bromo-2-fluorophenyl)amino)-2-(2-hydroxypropoxy)-5,7-dimethyl-3,4-dihydro-2,7-naphthyridine-1,6(2H,7H)-dione]	229 nM
Cn1c(Nc2ccccc2F)c2c(c(I)c1=O)CCN(OCCO)C2=O [Example 41, 8-((2-fluorophenyl)amino)-2-(2-hydroxyethoxy)-5-iodo-7-methyl-3,4-dihydro-2,7-naphthyridine-1,6(2H,7H)-dione]	74 nM
Cc1c2c(c(Nc3ccccc3F)n(C)c1=O)C(=O)N(OCCO)CC2Br (centres unmarked) [Example 43, 4-bromo-8-((2-fluorophenyl)amino)-2-(2-hydroxyethoxy)-5,7-dimethyl-3,4-dihydro-2,7-naphthyridine-1,6(2H,7H)-dione]	155 nM
CCCc1ccc(Nc2c3c(cc(=O)n2C)CCNC3=O)c(F)c1 [Example 54, 8-((2-fluoro-4-propylphenyl)amino)-7-methyl-3,4-dihydro-2,7-naphthyridine-1,6(2H,7H)-dione]	167 nM
Cc1c2c(c(Nc3ccc(OC(F)F)cc3F)n(C)c1=O)C(=O)NCC2 [Example 58, 8-((4-(difluoromethoxy)-2-fluorophenyl)amino)-5,7-dimethyl-3,4-dihydro-2,7-naphthyrdine-1,6(2H,7H)-dione]	45 nM
Cn1c(Nc2ccc(Br)cc2Cl)c2c(cc1=O)CCNC2=O [Example 59, 8-((4-bromo-2-chlorophenyl)amino)-7-methyl-3,4-dihydro-2,7-naphthyridine-1,6(2H,7H)-dione]	72 nM
Cn1c(Nc2ccc(Br)cc2F)c2c(cc1=O)CCN(CCO)C2=O [Example 60, 8-((4-bromo-2-fluorophenyl)amino)-2-(2-hydroxyethyl)-7-methyl-3,4-dihydro-2,7-naphthyridine-1,6(2H,7H)-dione trifluoroacetate]	508 nM
CSc1ccc(Nc2c3c(cc(=O)n2C)CCN(OCC(F)F)C3=O)c(F)c1 [Example 63, 2-(2,2-difluoroethoxy)-8-((2-fluoro-4-(methylthio)phenyl)amino)-7-methyl-3,4-dihydro-2,7-naphthyridine-1,6(2H,7H)-dione]	114 nM
Cn1c(Nc2ccc(Br)cc2F)c2c(cc1=O)C(c1ccccc1)CNC2=O (centres unmarked) [Example 64, 8-((4-bromo-2-fluorophenyl)amino)-7-methyl-4-phenyl-3,4-dihydro-2,7-naphthyridine-1,6(2H,7H)-dione]	2 nM

Each compound was assayed against T1, BCRP (hBCRP) (Homo sapiens, UniProt Q9UNQ0) (assay: Efflux ratio in BCRP transfected MDCKII canine P-gp knockout cells). Details: Papp(B−A)/Papp(A−B), read-out: Efflux ratio MDCKII-hBCRP knock-in,canine pg-P KO.
T1 construct: expressed in transfected cells; host or cells: MDCKII (canine kidney) cells, canine P-gp knockout, transfected with BCRP
T1 sequence (Q9UNQ0 1-655): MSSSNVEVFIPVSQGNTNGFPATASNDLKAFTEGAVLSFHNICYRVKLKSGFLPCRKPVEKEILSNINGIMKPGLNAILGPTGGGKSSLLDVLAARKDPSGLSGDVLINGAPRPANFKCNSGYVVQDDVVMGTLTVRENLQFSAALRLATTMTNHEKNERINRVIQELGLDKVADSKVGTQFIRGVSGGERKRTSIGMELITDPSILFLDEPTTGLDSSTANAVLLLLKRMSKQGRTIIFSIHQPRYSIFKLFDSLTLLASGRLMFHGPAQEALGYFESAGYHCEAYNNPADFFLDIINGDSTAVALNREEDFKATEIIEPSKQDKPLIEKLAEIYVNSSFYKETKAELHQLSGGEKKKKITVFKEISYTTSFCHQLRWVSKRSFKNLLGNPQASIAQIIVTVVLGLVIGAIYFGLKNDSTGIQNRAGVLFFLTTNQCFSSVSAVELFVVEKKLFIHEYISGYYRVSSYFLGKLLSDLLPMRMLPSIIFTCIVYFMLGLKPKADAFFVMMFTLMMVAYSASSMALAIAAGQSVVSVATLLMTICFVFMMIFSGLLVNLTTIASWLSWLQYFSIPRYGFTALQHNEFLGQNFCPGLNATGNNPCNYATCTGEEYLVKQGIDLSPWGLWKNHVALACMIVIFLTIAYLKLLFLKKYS
Format: in vitro ADME
Description: BCRP transfected MDCKII canine P-gp knockout cell line was cultured and plated according to manufacturer's recommendations.
Both positive and negative controls were used to assess functionality of P-gp or BCRP efflux in the assays. Stock solutions for assay controls and the test article were prepared in DMSO for final test concentrations of 10 and 1 μM, respectively. Final organic concentration in the assay was 1%. All dosing solutions contained 10 μM lucifer yellow to monitor LLC-PK1 or MDCKII cell monolayer integrity.
For the apical to basolateral determination (A to B), 75 μL of the test article in transport buffer were added to the apical side of the individual transwells and 250 μL of basolateral media, without compound or lucifer yellow, were added to each well. For the basolateral to apical determination (B to A), 250 μL of test article in transport buffer were added to each well and 75 μL transport buffer, without compound or lucifer yellow, were added to each transwell. All tests were performed in triplicate, and each compound was tested for both apical to basolateral and basolateral to apical transport. The plates were incubated for 2 hours on a Lab-Line Instruments Titer Orbital Shaker (VWR, West Chester, PA) at 50 rpm and 37° C. with 5% CO2. All culture plates were removed from the incubator and 50 μL of media were removed from the apical and basolateral portion of each well and added to 150 μL of 1 μM labetalol in 2:1 acetonitrile (acetonitrile): H2O, v/v.
The plates were read using a Molecular Devices (Sunnyvale, CA) Gemini Fluorometer to evaluate the lucifer yellow concentrations at excitation/emission wavelengths of 425/535 nm. These values were accepted when found to be below 2% for apical to basolateral and 5% basolateral to apical flux across the MDR1-transfected LLC-PK1 or BCRP-transfected MDCKII cell monolayers. The plates were sealed and the contents of each well analyzed by LC-MS/MS. The compound concentrations were determined from the ratio of the peak areas of the compound to the internal standard (labetalol) in comparison to the dosing solution.
The LC-MS/MS system was comprised of an HTS-PAL autosampler (Leap Technologies, Carrboro, NC), an HP1200 HPLC (Agilent, Palo Alto, CA), and a MDS Sciex 4000 Q Trap system (Applied Biosystems, Foster City, CA). […] The total run time, including re-equilibration, for a single injection was 1.2 minutes. Mass spectrometric detection of the analytes was accomplished using the ion spray positive mode. Analyte responses were measured by multiple reaction monitoring (MRM) of transitions unique to each compound (the protonated precursor ion and selected product ions for each test article and m/z 329 to m/z 162 for labetalol, the internal standard).
An efflux ratio is calculated from the mean apical to basolateral (A−B) Papp data and basolateral to apical (B−A) Papp data: Efflux ratio=Papp(B−A)/Papp(A−B)

Structure (SMILES)	efflux ratio at 2 h, 1 μM
Cn1c(Nc2ccc(Br)cc2F)c2c(cc1=O)C(c1ccccc1)CNC2=O (centres unmarked) [Example 64, 8-((4-bromo-2-fluorophenyl)amino)-7-methyl-4-phenyl-3,4-dihydro-2,7-naphthyridine-1,6(2H,7H)-dione]	1.5
